According to patent US8841254B2, “Method for treatment of anxiety” (Howard Florey Institute of Experimental Physiology and …, priority 2001, dated 2014):

Assays:
[1] = molecular target: T1, relaxin binding sites in THP-1 cells (Homo sapiens, UniProt Q9HBX9); assay: THP-1 cell binding assay (competition for 33P-labeled H2 relaxin (B33))
T1 construct: induce cAMP production in the human monocytic cell line (THP-1); endogenous in cells; host or cells: THP-1 (human monocytic cell line)
T1 sequence (Q9HBX9 1-757): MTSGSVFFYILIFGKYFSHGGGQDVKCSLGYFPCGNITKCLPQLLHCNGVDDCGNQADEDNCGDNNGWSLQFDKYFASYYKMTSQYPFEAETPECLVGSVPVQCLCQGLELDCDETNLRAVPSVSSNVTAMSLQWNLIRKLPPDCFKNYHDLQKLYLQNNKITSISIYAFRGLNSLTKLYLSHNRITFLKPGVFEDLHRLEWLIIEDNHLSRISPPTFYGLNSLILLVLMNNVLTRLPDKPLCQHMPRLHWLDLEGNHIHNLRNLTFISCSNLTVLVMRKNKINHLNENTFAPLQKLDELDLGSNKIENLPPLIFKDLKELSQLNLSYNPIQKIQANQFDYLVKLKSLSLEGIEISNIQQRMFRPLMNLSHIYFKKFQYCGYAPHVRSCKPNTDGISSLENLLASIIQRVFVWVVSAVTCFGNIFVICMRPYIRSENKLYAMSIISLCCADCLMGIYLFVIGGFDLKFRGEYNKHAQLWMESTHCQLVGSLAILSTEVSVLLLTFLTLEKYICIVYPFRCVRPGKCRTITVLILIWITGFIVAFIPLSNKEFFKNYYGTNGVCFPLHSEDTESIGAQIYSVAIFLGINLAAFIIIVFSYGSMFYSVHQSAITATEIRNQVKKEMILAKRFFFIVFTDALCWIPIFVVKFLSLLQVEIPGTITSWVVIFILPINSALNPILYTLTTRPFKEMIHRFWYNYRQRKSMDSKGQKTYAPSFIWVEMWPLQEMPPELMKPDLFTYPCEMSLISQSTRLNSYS
Experimental: THP-1 cells were spun down and resuspended in binding buffer (20 mM HEPES, 50 mM NaCl, 1.5 mM CaCl2, 1% BSA, 0.1 mg/ml lysine, 0.01% […], pH 7.5) (Parsell et al (1996) J. Biol. Chem. 271, 27936-27941) to give 2×10^6 cells/well in a 96-well plate. The cells were incubated in binding buffer with ^33P-labeled H2 (B33) relaxin (100 pM: labeled as previously described (Tan et al (1999) Br. J. Pharmacol. 127, 91-98) at 25° C. for 90 min in the absence or presence of increasing concentrations of unlabeled H1, H2 and H3 relaxin ([…]). Non-specific binding was defined with H2 relaxin (1 μM). Cells were harvested using a Packard 96-well plate cell harvester and Whatman GF/C glass fibre filters treated with 0.5% polyethylenimine. The filters were washed three times with modified binding buffer (20 mM HEPES, 50 mM NaCl, 1.5 mM CaCl2), dried in a 37° C. oven, and the radioactivity counted by liquid scintillation spectrometry (TopCount™, Canberra Packard, Australia).

[2] = system: goat anti-H2 relaxin antibody; assay: Antibody crossreactivity radioimmunoassay (displacement of 125I-labeled H2 relaxin); assay type: binding; settings: FIG. 4
Experimental: The ability of well characterized human relaxin antibodies to recognize H3 relaxin was tested in comparison to H1 and H2 relaxins by radioimmunoassay. Briefly, goat anti-H2 relaxin (Lucas et al (1989) J. Endocrinol. 120, 449-57) was coated onto 96 well ELISA plates (Disposable Products, Adelaide, Australia) at a dilution of 1:1000 with 0.05M sodium carbonate buffer at 4° C. overnight. After washing twice with PBS-T (phosphate buffered saline; 0.05% Tween 20, pH 7.4) dilutions of human relaxin peptides dissolved in 50 μl of assay buffer (1% BSA in PBS-T) were added together with 50,000 cpm ^125I-labeled relaxin, in 50 μl of assay buffer. H2 relaxin was ^125I-labeled and purified by HPLC (Palejwala et al (1998) Endocrinology 139, 1208-1212). After an overnight incubation at 4° C. the plates were washed twice with PBS-T. The antibody-bound-^125I-labeled H2 relaxin was collected by the addition of 1M NaOH and decanted into tubes for counting on a Packard 5010 gamma counter (Canberra Packard). Experiments were performed at least twice and similar results obtained. Data was plotted as the mean±SEM from one representative experiment performed in triplicate and plotted using PRISM.

[3] = molecular target: T2, human relaxin receptors (THP-1 cells) (Homo sapiens, UniProt Q9HBX9); assay: THP-1 cell bioassay (cAMP production); assay type: cell-based; settings: doses up to 1 μM
T2 construct: induce cAMP production in the human monocytic cell line (THP-1); endogenous in cells; host or cells: THP-1 (human monocytic cell line)
T2 sequence (Q9HBX9 1-757): T1 sequence (Q9HBX9 1-757)
Experimental: Biol. Chem. 271, 27936-27941), with the following modifications; […] The plate was then briefly centrifuged, the media removed and the cells resuspended in lysis buffer. cAMP levels were measured in the lysates using the cAMP Biotrak EIA system (Amersham International, Aylesbury, UK). […] Data represent the mean±SEM of three experiments performed in quadruplicate, and are plotted using PRISM (Graphpad Inc., San Diego, Calif.).

ability to stimulate cAMP responses [3] | Compound | Ki [1] [nM] | ability to displace 125I-labeled H2 relaxin binding to the anti-H2 relaxin antibody [2]
 | CC[C@H](C)[C@@H]1NC(=O)[C@H](Cc2ccccc2)NC(=O)[C@H](CCC(=O)O)NC(=O)[C@H](CCCNC(=N)N)NC(=O)CNC(=O)[C@@H](NC(=O)[C@H](CC(C)C)NC(=O)[C@H](CCCNC(=N)N)NC(=O)[C@@H](NC(=O)CNC(=O)[C@H](Cc2ccc(O)cc2)NC(=O)[C@@H]2CCCN2C(=O)[C@H](C)NC(=O)[C@H](C)NC(=O)[C@@H](N)CCCNC(=N)N)C(C)C)CSSC[C@@H]2NC(=O)[C@@H](NC(=O)[C@H](CO)NC(=O)[C@H](CO)NC(=O)[C@H](CO)NC(=O)[C@H](CC(C)C)NC(=O)CNC(=O)[C@H](C)NC(=O)[C@H](CC(C)C)NC(=O)[C@@H](NC(=O)[C@@H](N)CC(=O)O)C(C)C)CSSC[C@H](NC(=O)CNC(=O)[C@H](Cc3c[nH]c4ccccc34)NC(=O)[C@H](CCCCN)NC2=O)C(=O)N[C@@H](CO)C(=O)N[C@@H](CCCCN)C(=O)N[C@@H](CO)C(=O)N[C@@H](CCC(=O)O)C(=O)N[C@@H]([C@@H](C)CC)C(=O)N[C@@H](CO)C(=O)N[C@@H](CO)C(=O)N[C@@H](CC(C)C)C(=O)N[C@H](C(N)=O)CSSC[C@@H](C(=O)NCC(=O)NCC(=O)N[C@@H](CO)C(=O)N[C@@H](CCCNC(=N)N)C(=O)N[C@@H](Cc2c[nH]c3ccccc23)C(N)=O)NC(=O)[C@H]([C@@H](C)O)NC(=O)[C@H](Cc2ccccc2)NC(=O)[C@H]([C@@H](C)CC)NC(=O)[C@H](C(C)C)NC(=O)[C@H](C)NC(=O)[C@H](CCCNC(=N)N)NC1=O [H3 relaxin, Human Relaxin H3 [hR]x-3 A (1-24) Amide-B (1-27) Amide] | 31.6 | poor cross reactivity
 | H2 relaxin: recombinant H2 relaxin, a gift from the Connetics Corporation |  | able to displace
inability | bovine insulin [bINSL] |  | 
inability | hINSL3: Human INSL3 synthesized using the same methodology used for ovine INSL3 (chain 1 AAATNPARYCCLSGCTQQDLLTLCPY; chain 2 PTPEMREKLCGHHFVRALVRVCGGPRWSTEA) |  | 
